Reference: PubChem BioAssay (NCI)
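At the GI50, growth is halved. TGI: total growth inhibition.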

Assays:
Assay in all cases: NCI anticancer screen, dose series, 384-well format
[1] = test system: SK-OV-3 ovarian
[2] = test system: MOLT-4 leukemia
[3] = test system: MDA-MB-231 breast
[4] = test system: OVCAR-3 ovarian
[5] = test system: KM12 colon
[6] = test system: HCT-15 colon
[7] = test system: MDA-MB-468 breast
[8] = test system: 786-0 renal
[9] = test system: EKVX NSCLC
[10] = test system: A549 NSCLC
[11] = test system: UO-31 renal
[12] = test system: DU-145 prostate
[13] = test system: RPMI-8226 leukemia
[14] = test system: SF-268 CNS
[15] = test system: SK-MEL-5 melanoma
[16] = test system: T-47D breast
[17] = test system: SW-620 colon
[18] = test system: RXF 393 renal
[19] = test system: PC-3 prostate
[20] = test system: NCI-H226 lung
[21] = test system: SF-295 CNS
[22] = test system: UACC-62 melanoma
[23] = test system: NCI-H23 lung
[24] = test system: HL-60(TB) leukemia
[25] = test system: HS 578T breast
[26] = test system: OVCAR-4 ovarian
[27] = test system: BT-549 breast

With `Cc1ccc(Nc2nccc(N(C)c3ccc4c(C)n(C)nc4c3)n2)cc1S(N)(=O)=O` the TGI [1] was > 100 µM, the GI50 [2] was 2.36 µM and the TGI [2] was 6.45 µM. The GI50 [3] was 5.54 µM, the TGI [3] was > 100 µM and the GI50 [4] was 22.6 µM. The TGI [4] was > 100 µM, the GI50 [5] was 7 µM and the TGI [5] was > 100 µM. It also gave a GI50 [6] of 4.4 µM, a TGI [6] of 37.8 µM and a GI50 [7] of 2.97 µM. The TGI [7] was 62.9 µM, the GI50 [8] was 4.16 µM and the TGI [8] was > 100 µM. For the same compound, the GI50 [9] was 14.3 µM, the TGI [9] was > 100 µM and the GI50 [10] was 4.55 µM. The TGI [10] was > 100 µM, the GI50 [11] was 8.29 µM and the TGI [11] was > 100 µM. The GI50 [12] was 9.34 µM, the TGI [12] was > 100 µM and the GI50 [13] was 3.57 µM. For the same compound, the TGI [13] was 11.5 µM, the GI50 [14] was 12.6 µM and the TGI [14] was > 100 µM. For the same compound, the GI50 [15] was 3.03 µM, the TGI [15] was 10.7 µM and the GI50 [16] was 2.52 µM. For the same compound, the TGI [16] was 11.4 µM, the GI50 [17] was > 100 µM and the TGI [17] was > 100 µM. It also gave a GI50 [18] of 0.485 µM, a TGI [18] of 3.04 µM and a GI50 [19] of 11.2 µM. For the same compound, the TGI [19] was 70.9 µM, the GI50 [20] was 1.99 µM and the TGI [20] was 13.3 µM. The GI50 [21] was 8.89 µM, the TGI [21] was > 100 µM and the GI50 [22] was 6.37 µM. It also gave a TGI [22] of 20.8 µM, a GI50 [23] of 4.79 µM and a TGI [23] of 69.6 µM. It also gave a GI50 [24] of 7.4 µM, a TGI [24] of 18.3 µM and a GI50 [25] of 2.3 µM. For the same compound, the TGI [25] was 7.68 µM, the GI50 [26] was 9.52 µM and the TGI [26] was 35.6 µM. It also gave a GI50 [27] of 1.61 µM and a TGI [27] of 16.6 µM.
